According to US12427134B2, “Methods of reducing the risk of cardiovascular events in a subject with atrial fibrillation and/or atrial flutter” (priority 2019, dated 2025):

Tested on: hypertriglyceridemic patients with cardiovascular disease or at high risk for cardiovascular disease
Assay: REDUCE-IT: treatment-emergent adverse events and serious adverse events (safety population)
[1] = patients taking ezetimibe at baseline

## CC/C=C\C/C=C\C/C=C\C/C=C\C/C=C\CCCC(=O)OCC [AMR101, eicosapentaenoic acid ethyl ester]
Safety population, N = 4089
  Study drug-related TEAE leading to study drug withdrawal - Gastroesophageal reflux disease, % patients: (0.1) %
  Study drug-related TEAE leading to study drug withdrawal - Gastroesophageal reflux disease, n patients: 5
  Study drug-related TEAE leading to study drug withdrawal - Gastrointestinal disorders (SOC), % patients: (2.4) %
  Study drug-related TEAE leading to study drug withdrawal - Gastrointestinal disorders (SOC), n patients: 97
  Study drug-related TEAE leading to study drug withdrawal - Hypersensitivity, % patients: (0.1) %
  Study drug-related TEAE leading to study drug withdrawal - Hypersensitivity, n patients: 3
  Study drug-related TEAE leading to study drug withdrawal - Immune system disorders (SOC), % patients: (0.1) %
  Study drug-related TEAE leading to study drug withdrawal - Immune system disorders (SOC), n patients: 4
  Study drug-related TEAE leading to study drug withdrawal - Muscle spasms, % patients: (0.0) %
  Study drug-related TEAE leading to study drug withdrawal - Muscle spasms, n patients: 0
  Study drug-related TEAE leading to study drug withdrawal - Musculoskeletal and connective tissue disorders (SOC), % patients: (0.3) %
  Study drug-related TEAE leading to study drug withdrawal - Musculoskeletal and connective tissue disorders (SOC), n patients: 13
  Study drug-related TEAE leading to study drug withdrawal - Nausea, % patients: (0.4) %
  Study drug-related TEAE leading to study drug withdrawal - Nausea, n patients: 16
  Study drug-related TEAE leading to study drug withdrawal - Pruritus generalized, % patients: (0.1) %
  Study drug-related TEAE leading to study drug withdrawal - Pruritus generalized, n patients: 3
  Study drug-related TEAE leading to study drug withdrawal - Pruritus, % patients: (0.0) %
  Study drug-related TEAE leading to study drug withdrawal - Pruritus, n patients: 1
  Study drug-related TEAE leading to study drug withdrawal - Rash, % patients: (0.1) %
  Study drug-related TEAE leading to study drug withdrawal - Rash, n patients: 3
  Study drug-related TEAE leading to study drug withdrawal - Skin and subcutaneous disorders (SOC), % patients: (0.4) %
  Study drug-related TEAE leading to study drug withdrawal - Skin and subcutaneous disorders (SOC), n patients: 16
  Study drug-related TEAE leading to study drug withdrawal - Skin odor abnormal, % patients: (0.1) %
  Study drug-related TEAE leading to study drug withdrawal - Skin odor abnormal, n patients: 3
  Study drug-related TEAE leading to study drug withdrawal - Vomiting, % patients: (0.1) %
  Study drug-related TEAE leading to study drug withdrawal - Vomiting, n patients: 3
  Study drug-related TEAE: Arthralgia, %: (0.6) %
  Study drug-related TEAE: Diarrhea, %: (2.7) %
  Study drug-related TEAE: Dyspepsia, %: (0.4) %
  Study drug-related TEAE: Eructation, %: (0.9) %
  Study drug-related TEAE: Flatulence, %: (0.8) %
  Study drug-related TEAE: Gastrointestinal disorders, %: (7.4) %
  Study drug-related TEAE: Musculoskeletal and connective tissue disorders, %: (1.4) %
  Study drug-related TEAE: Nausea, %: (0.8) %
  Subjects with at Least One TEAE: 3343 (81.8%) n (%)
  TEAE Leading to Withdrawal of Study Drug, %: (7.9) %
  TEAE: Anemia, %: (4.7) %
  TEAE: Angina pectoris, %: (4.9) %
  TEAE: Arthralgia, %: (7.7) %
  TEAE: Atrial fibrillation, %: (5.3) %
  TEAE: Back pain, %: (8.2) %
  TEAE: Blood and lymphatic system disorders, %: (7.9) %
  TEAE: Bronchitis, %: (7.5) %
  TEAE: Cardiac disorders, %: (22.3) %
  TEAE: Cataract, %: (5.7) %
  TEAE: Chest pain, %: (6.7) %
  TEAE: Constipation, %: (5.4) %
  TEAE: Cough, %: (5.9) %
  TEAE: Diabetes mellitus, %: (4.1) %
  TEAE: Diarrhea, %: (9.0) %
  TEAE: Dizziness, %: (5.7) %
  TEAE: Dyspnea, %: (6.2) %
  TEAE: Edema peripheral, %: (6.5) %
  TEAE: Eye disorders, %: (11.7) %
  TEAE: Fall, %: (3.6) %
  TEAE: Fatigue, %: (5.6) %
  TEAE: Gastroesophageal reflux disease, %: (3.0) %
  TEAE: Gastrointestinal disorders, %: (33.0) %
  TEAE: General disorders and administration site conditions, %: (25.2) %
  TEAE: Gout, %: (4.2) %
  TEAE: Headache, %: (4.2) %
  TEAE: Hypertension, %: (7.8) %
  TEAE: Infections and infestations, %: (44.6) %
  TEAE: Influenza, %: (6.4) %
  TEAE: Injury, poisoning, and procedural complications, %: (18.3) %
  TEAE: Insomnia, %: (3.0) %
  TEAE: Metabolism and nutrition disorders, %: (23.3) %
  TEAE: Muscle spasms, %: (2.5) %
  TEAE: Musculoskeletal and connective tissue disorders, %: (35.9) %
  TEAE: Musculoskeletal pain, %: (4.3) %
  TEAE: Myalgia, %: (3.3) %
  TEAE: Nasopharyngitis, %: (7.7) %
  TEAE: Nausea, %: (4.6) %
  TEAE: Nervous system disorders, %: (24.6) %
  TEAE: Non-cardiac chest pain, %: (3.9) %
  TEAE: Osteoarthritis, %: (5.9) %
  TEAE: Pain in extremity, %: (5.7) %
  TEAE: Pneumonia, %: (6.4) %
  TEAE: Psychiatric disorders, %: (9.1) %
  TEAE: Respiratory, thoracic, and mediastinal disorders, %: (24.2) %
  TEAE: Sinusitis, %: (4.1) %
  TEAE: Type 2 diabetes mellitus, %: (3.6) %
  TEAE: Vascular disorders, %: (17.3) %
  Ventricular extrasystoles TEAE, Event Rate: 0.7%
  Ventricular extrasystoles TEAE, Number of Subjects: 27
  Ventricular fibrillation TEAE, Event Rate: 0.0%
  Ventricular fibrillation TEAE, Number of Subjects: 0
  Ventricular tachycardia TEAE, Event Rate: 0.3%
  Ventricular tachycardia TEAE, Number of Subjects: 12
[1]
  TEAE class GI disorders, patients: 37.4%
  TEAE class general disorders and administration site conditions, patients: 26.3%
  TEAE class musculoskeletal and connective tissue disorders, patients: 41.2%
  TEAE class nervous system disorders, patients: 23.7%
  TEAE class respiratory, thoracic, and mediastinal disorders, patients: 27.5%
